≈ marks a conversion by molar mass, not a printed value. Read-outs that look alike come from different tables or passages of the source. Where a SMILES comes first, the peptide text is derived from it. Bridges are numbered along the chain shown (N, C = ends). Roman numbers before positions name the chains, in order. Side-chain parts run from the residue outwards. The star is where a group is joined. Myristoyl = CCCCCCCCCCCCCC(=O)*; Lauroyl = CCCCCCCCCCCC(=O)*; Octanoyl = CCCCCCCC(=O)*
Experiments:
[1] = Lipopeptide hydrophobicity by RP-HPLC (adjusted retention time); format: physicochemical; settings: for Adjusted Retention Time: RP-HPLC, 20–65% acetonitrile over 30 min, indicator of hydrophobicity; for Difference in retention time calculated as tR’C—tR’B: between corresponding surfactants of series C and B
Description: The identity of the purified peptides was confirmed with electrospray ionization mass spectrometry (ESI-MS) in positive ion mode. Results of MS analyses and net charge are attached in Supplementary Materials (Table S1). Peptides’ hydrophobicity was evaluated by analytical reversed-phase high-performance liquid chromatography (RP-HPLC). The critical aggregation concentrations (CACs) of the lipopeptides were determined in unbuffered aqueous solution at 298 K by measuring the surface tension as a function of lipopeptide concentration. The measurements were carried out by the Du Noüy ring method on a K100 tensiometer. The surface tension data were plotted against the logarithm of lipopeptide concentration. CAC was found as the intersection of two lines being linear regression of data below and above CAC.
Lipopeptide hydrophobicity was determined as described previously. To do this, a Waters Alliance e2695 system with a Waters 2998 PDA Detector (software-Empower 3, Waters, Milford, MA, USA) was used. All analyses were carried out on a Waters X-Bridge Shield RP-18 column (3.0 × 100 mm, 3.5 μm particle size, 130 Å pore size). The Shield Technology column with embedded polar groups was used to minimize interactions of unreacted silanol groups with basic lipopeptides. The peptides were dissolved in water (0.1% TFA, v/v) up to a concentration of 1 mg/mL. UV detection at 214 nm was used, and samples (10 μL) were eluted with a linear 20–65% acetonitrile gradient in deionized water over 30 min at 25.0 ± 0.1 °C. The mobile phase flow rate was 0.5 mL/min. Both eluents contained 0.1% (v/v) of TFA. Each peptide sample was analyzed in triplicate. The maximum standard deviation and coefficient of variation were 0.044 and 0.85%, respectively.

[2] = tested on: Staphylococcus aureus ATCC 33591
Description: The Acinetobacter baumannii ATCC BAA-1605, Enterococcus faecium ATCC 700221, Escherichia coli ML-35 ATCC 43827, Klebsiella aerogenes ATCC 13048, Klebsiella pneumoniae ATCC 700603, Pseudomonas aeruginosa ATCC 9027, Staphylococcus aureus ATCC 25923, Staphylococcus aureus ATCC 33591, Candida albicans ATCC 10231, Candida glabrata ATCC 15126, strains were acquired from the American Type Culture Collection (ATCC). All the strains were stored at −80 °C in Roti-Store cryo vials and before the tests were transferred into fresh Mueller–Hinton broth (MHB, Biocorp, Warsaw, […], Steinheim, Germany) for fungi and incubated for 24 h at 37 °C. Then, the cultures were seeded on the Mueller–Hinton agar (BioMaxima, Lublin, Poland) or Sabouraud dextrose agar (SDA, BioMaxima, Lublin, Poland) plates, respectively, and incubated as just mentioned. These agar cultures were used for further microbiological assays. […]
(§1) The MICs were determined by the broth microdilution method according to the Clinical and Laboratory Standard Institute guidelines. […] The experiments were conducted on 96-well microtiter polystyrene plates (Kartell, Noviglio, Italy). The growth was assessed visually after incubation, and the MIC was assumed as the lowest peptide concentration at which a noticeable growth of microorganisms was inhibited. All experiments were conducted in triplicate.

[3] = tested on: Staphylococcus aureus ATCC 25923
Description: (§2) The Acinetobacter baumannii ATCC BAA-1605, Enterococcus faecium ATCC 700221, Escherichia coli ML-35 ATCC 43827, Klebsiella aerogenes ATCC 13048, Klebsiella pneumoniae ATCC 700603, Pseudomonas aeruginosa ATCC 9027, Staphylococcus aureus ATCC 25923, Staphylococcus aureus ATCC 33591, Candida albicans ATCC 10231, Candida glabrata ATCC 15126, strains were acquired from the American Type Culture Collection (ATCC). All the strains were stored at −80 °C in Roti-Store cryo vials and before the tests were transferred into fresh Mueller–Hinton broth (MHB, Biocorp, Warsaw, Poland) for bacteria or RPMI-1640 (Sigma-Aldrich, Steinheim, Germany) for fungi and incubated for 24 h at 37 °C. Then, the cultures were seeded on the Mueller–Hinton agar (BioMaxima, Lublin, Poland) or Sabouraud dextrose agar (SDA, BioMaxima, Lublin, Poland) plates, respectively, and incubated as just mentioned. These agar cultures were used for further microbiological assays. Cell densities for all assays were adjusted spectrophotometrically (Multiskan GO Microplate Spectrophotometer, Thermo Fisher Scientific, Vantaa, Finland) at 600 and 530 nm for bacteria and fungi, respectively.
as §1

[4] = tested on: Klebsiella aerogenes ATCC 13048
Description: as §2, §1

[5] = tested on: Klebsiella pneumoniae ATCC 700603
Description: as §2, §1

[6] = tested on: Enterococcus faecium ATCC 700221
Description: as §2, §1

[7] = tested on: Acinetobacter baumannii ATCC BAA 1605
Description: as §2, §1

[8] = tested on: Pseudomonas aeruginosa ATCC 9027
Description: as §2, §1

[9] = tested on: Staphylococcus aureus ATCC 33591; format: cell-based
Description: (§3) Biofilm is associated with life-threating infections due to its outstanding resistance to antibiotics. In this study, the antibiofilm characteristics of USCLs and gemini surfactants were evaluated.
(§4) The MBECs were determined as described previously using 96-well polystyrene flat-bottom plates. For this purpose, 24 h cultures of microorganisms were diluted to obtain a final density of 5.0 × 10^5 CFU/mL and 2.0 × 10^5 CFU/mL of bacteria and fungi, respectively. Microorganisms were diluted in MHB or RPMI-1640 with 2% D-glucose (bacteria and fungi, respectively). Briefly, 100 µL of cell suspension was added into the test plates. After 24 h of incubation at 37 °C, the wells were rinsed three times with a PBS (pH 7.4) to remove non-adherent cells. Subsequently, 100 μL of the test compounds in a concentration range (1–512 μg/mL) were added to each well. After 24 h of incubation at 37 °C, 20 μL of a cell viability reagent was added (resazurin, 4 g/L; Sigma Aldrich, St. Louis, MO, USA). The MBEC was read after 1 h. The determined values were recorded as the lowest concentration at which the reduction of resazurin (from blue to pink) was lower or equal to 10 ± 0.5% as compared to the positive (100%) and negative (0%) controls. The reduction was monitored by measuring absorbance at 570 nm (reduced) and 600 nm (oxidized) using a microplate spectrophotometer (Multiskan GO Microplate Spectrophotometer, Thermo Fisher Scientific, Vantaa, Finland). All experiments were conducted in triplicate.

[10] = tested on: Acinetobacter baumannii ATCC BAA 1605; format: cell-based
Description: as §3, §4

SMILES | Adjusted Retention Time [1] [min] | MIC Staphylococcus aureus ATCC 33591 ([2]; ATCC 33591, 24 h) [µg/mL] | MIC Klebsiella aerogenes ATCC 13048 ([4]; ATCC 13048, 24 h) | MIC Klebsiella pneumoniae ATCC 700603 ([5]; ATCC 700603, 24 h) | MIC Enterococcus faecium ATCC 700221 ([6]; ATCC 700221, 24 h) [µg/mL] | MIC Acinetobacter baumannii ATCC BAA 1605 ([7]; ATCC BAA 1605, 24 h) | MIC Pseudomonas aeruginosa ATCC 9027 ([8]; ATCC 9027, 24 h) [µg/mL] | MIC Staphylococcus aureus ATCC 25923 ([3]; ATCC 25923, 24 h) [µg/mL] | Difference in retention time calculated as tR’C—tR’B [1] [min] | MIC Staphylococcus aureus ATCC 25923 ([3]; planktonic culture) [µg/mL] | MBEC Staphylococcus aureus ATCC 33591 ([9]; ATCC 33591, 24 h) [µg/mL] | MBEC Acinetobacter baumannii ATCC BAA 1605 ([10]; ATCC BAA 1605, 24 h) [µg/mL] | MIC Staphylococcus aureus ATCC 33591 ([2]; planktonic culture) [µg/mL] | MIC Klebsiella aerogenes ATCC 13048 ([4]; planktonic culture) [µg/mL] | MIC Klebsiella pneumoniae ATCC 700603 ([5]; planktonic culture) [µg/mL] | MIC Enterococcus faecium ATCC 700221 ([6]; planktonic culture) [µg/mL] | MIC Acinetobacter baumannii ATCC BAA 1605 ([7]; planktonic culture) [µg/mL] | MIC Pseudomonas aeruginosa ATCC 9027 ([8]; planktonic culture) [µg/mL] | MBEC Staphylococcus aureus ATCC 33591 ([9]; 24 h biofilm on polystyrene) [µg/mL] | MBEC Acinetobacter baumannii ATCC BAA 1605 ([10]; 24 h biofilm on polystyrene) [µg/mL]
CCCCCCCCCCCCCC(=O)N[C@@H](CCCNC(=N)N)C(=O)N[C@@H](CCCNC(=N)N)C(=O)N[C@@H](CSSC[C@H](NC(=O)[C@H](CCCNC(=N)N)NC(=O)[C@H](CCCNC(=N)N)NC(=O)CCCCCCCCCCCCC)C(N)=O)C(N)=O [Compound C4] (I: Myristoyl-Arg-Arg-Cys-NH2 / II: Myristoyl-Arg-Arg-Cys-NH2; disulfide I:3-II:3) | 25.30 | 32 (≈ 24.9 µM) | 128 µg/mL (≈ 99.7 µM) | >256 (−/−) µg/mL | 8 (≈ 6.23 µM) | 32 µg/mL (≈ 24.9 µM) | 64 (≈ 49.9 µM) |  | -0.03 | 64 (≈ 49.9 µM) | 128 | 512 |  |  |  |  |  |  |  | 
CCCCCCCC(=O)N[C@@H](Cc1ccccc1)C(=O)N[C@@H](CCCNC(=N)N)C(=O)N[C@@H](CCCNC(=N)N)C(=O)N[C@@H](CSSC[C@H](NC(=O)[C@H](CCCNC(=N)N)NC(=O)[C@H](CCCNC(=N)N)NC(=O)[C@H](Cc1ccccc1)NC(=O)CCCCCCC)C(N)=O)C(N)=O [Compound C5] (I: Octanoyl-FRRC-NH2 / II: Octanoyl-FRRC-NH2; disulfide I:4-II:4) | 15.42 |  |  |  |  |  |  |  | 0.23 | 2 (≈ 1.42 µM) |  |  | 2 (≈ 1.42 µM) | 128 (≈ 90.8 µM) | 32 (≈ 22.7 µM) | 2 (≈ 1.42 µM) | 32 (≈ 22.7 µM) | 8 (≈ 5.67 µM) | 8 | 512
CCCCCCC(CCCC)C(=O)N[C@@H](CCCNC(=N)N)C(=O)N[C@@H](CCCNC(=N)N)C(=O)N[C@@H](CSSC[C@H](NC(=O)[C@H](CCCNC(=N)N)NC(=O)[C@H](CCCNC(=N)N)NC(=O)C(CCCC)CCCCCC)C(N)=O)C(N)=O (some centres unmarked) [Compound C7] | 14.83 | 2 (≈ 1.63 µM) | 16 µg/mL (≈ 13 µM) | 32 µg/mL (≈ 26.1 µM) | 2 (≈ 1.63 µM) | 32 µg/mL (≈ 26.1 µM) | 4 (≈ 3.26 µM) | 2 (≈ 1.63 µM) | 0.15 |  | 8 | 256 |  |  |  |  |  |  |  | 

Further lines, with some results ahead:

Adjusted Retention Time [1] [min] | MIC Staphylococcus aureus ATCC 33591 ([2]; ATCC 33591, 24 h) [µg/mL] | MIC Klebsiella aerogenes ATCC 13048 ([4]; ATCC 13048, 24 h) | MIC Klebsiella pneumoniae ATCC 700603 ([5]; ATCC 700603, 24 h) | MIC Enterococcus faecium ATCC 700221 ([6]; ATCC 700221, 24 h) [µg/mL] | MIC Acinetobacter baumannii ATCC BAA 1605 ([7]; ATCC BAA 1605, 24 h) | MIC Pseudomonas aeruginosa ATCC 9027 ([8]; ATCC 9027, 24 h) [µg/mL] | MIC Staphylococcus aureus ATCC 25923 ([3]; ATCC 25923, 24 h) [µg/mL] | SMILES | Difference in retention time calculated as tR’C—tR’B [1] [min] | MIC Staphylococcus aureus ATCC 25923 ([3]; planktonic culture) [µg/mL] | MBEC Staphylococcus aureus ATCC 33591 ([9]; ATCC 33591, 24 h) [µg/mL] | MBEC Acinetobacter baumannii ATCC BAA 1605 ([10]; ATCC BAA 1605, 24 h) [µg/mL] | MIC Staphylococcus aureus ATCC 33591 ([2]; planktonic culture) [µg/mL] | MIC Klebsiella aerogenes ATCC 13048 ([4]; planktonic culture) [µg/mL] | MIC Klebsiella pneumoniae ATCC 700603 ([5]; planktonic culture) [µg/mL] | MIC Enterococcus faecium ATCC 700221 ([6]; planktonic culture) [µg/mL] | MIC Acinetobacter baumannii ATCC BAA 1605 ([7]; planktonic culture) [µg/mL] | MIC Pseudomonas aeruginosa ATCC 9027 ([8]; planktonic culture) [µg/mL] | MBEC Staphylococcus aureus ATCC 33591 ([9]; 24 h biofilm on polystyrene) [µg/mL] | MBEC Acinetobacter baumannii ATCC BAA 1605 ([10]; 24 h biofilm on polystyrene) [µg/mL]
12.15 | 32 (≈ 62.5 µM) | >256 (−/−) µg/mL | >256 (−/−) µg/mL | 32 (≈ 62.5 µM) | 256 (−/−) µg/mL | 128 (≈ 250 µM) | 32 (≈ 62.5 µM) | CCCCCCCCCCCC(=O)N[C@@H](CCCNC(=N)N)C(=O)N[C@@H](CCCNC(=N)N)C(N)=O [Compound A3, C12-RR-NH2] (Lauroyl-Arg-Arg-NH2) |  |  | 64 | 512 |  |  |  |  |  |  |  | 
15.19 | 4 (≈ 3.04 µM) | 256 (−/−) µg/mL | 128 µg/mL (≈ 97.2 µM) | 4 (≈ 3.04 µM) | 32 µg/mL (≈ 24.3 µM) | 8 (≈ 6.08 µM) | 2 (≈ 1.52 µM) | CCCCCCCC(=O)N[C@@H](Cc1ccccc1)C(=O)N[C@@H](CCCNC(=N)N)C(=O)N[C@@H](CCCNC(=N)N)C(=O)NCCCC[C@H](NC(=O)[C@H](CCCNC(=N)N)NC(=O)[C@H](CCCNC(=N)N)NC(=O)[C@H](Cc1ccccc1)NC(=O)CCCCCCC)C(N)=O [Compound B5] (Octanoyl-FRRK([Arg-Arg-Phe-Octanoyl])-NH2) |  |  | 4 | 256 |  |  |  |  |  |  |  | 

— article PMC8036666, “Biological and Physico-Chemical Characteristics of Arginine-Rich Peptide Gemini Surfactants with Lysine and Cystine Spacers” (International Journal of Molecular Sciences, 2021)
